Converted amounts (≈) assume the structure as drawn.
Legend:
[1] = tested on: Staphylococcus aureus 209P; test: Minimum inhibitory concentration (MIC); assay type: cell-based
[2] = tested on: S. aureus 20240; test: Minimum inhibitory concentration (MIC); assay type: cell-based; details: Staphylococcus aureus
[3] = tested on: S. aureus E-710; test: Minimum inhibitory concentration (MIC); assay type: cell-based; details: Staphylococcus aureus, E710
[4] = tested on: S. aureus SG511; test: Minimum inhibitory concentration (MIC); assay type: cell-based; details: Staphylococcus aureus
[5] = tested on: S. aureus 3066; test: Minimum inhibitory concentration (MIC); assay type: cell-based; details: Staphylococcus aureus; S. aureus 3066 (resistant strain to methicillin)
[6] = tested on: S. warneri 6563 II (2); test: Minimum inhibitory concentration (MIC); assay type: cell-based; details: Staphylococcus warneri
[7] = tested on: S. aureus E-712; test: Minimum inhibitory concentration (MIC); assay type: cell-based; details: Staphylococcus aureus, E712
[8] = tested on: S. aureus 20424; test: Minimum inhibitory concentration (MIC); assay type: cell-based; details: Staphylococcus aureus
[9] = tested on: S. aureus Chantot 31153; test: Minimum inhibitory concentration (MIC); assay type: cell-based; details: Staphylococcus aureus, CHANTOT31153
[10] = tested on: S. aureus Wein 11; test: Minimum inhibitory concentration (MIC); assay type: cell-based; details: Staphylococcus aureus, WEIN11
[11] = tested on: S. aureus Wein 12; test: Minimum inhibitory concentration (MIC); assay type: cell-based; details: Staphylococcus aureus, WEIN12
[12] = tested on: S. aureus 503(Mers); test: Minimum inhibitory concentration (MIC); assay type: cell-based
[13] = tested on: S. aureus Brussel 4115; test: Minimum inhibitory concentration (MIC); assay type: cell-based; details: Staphylococcus aureus, BRUSSEL4115
[14] = tested on: S. aureus MLS-16; test: Minimum inhibitory concentration (MIC); assay type: cell-based; details: Staphylococcus aureus, MLS16
[15] = tested on: S. haemolyticus 809; test: Minimum inhibitory concentration (MIC); assay type: cell-based; details: Staphylococcus haemolyticus
[16] = tested on: S. epidermidis 825; test: Minimum inhibitory concentration (MIC); assay type: cell-based; details: Staphylococcus epidermidis
[17] = tested on: S. epidermidis 823; test: Minimum inhibitory concentration (MIC); assay type: cell-based; details: Staphylococcus epidermidis
[18] = tested on: S. epidermidis 607; test: Minimum inhibitory concentration (MIC); assay type: cell-based; details: Staphylococcus epidermidis
[19] = tested on: S. epidermidis 5747 IW; test: Minimum inhibitory concentration (MIC); assay type: cell-based; details: Staphylococcus epidermidis
[20] = tested on: Enterococcus faecalis ATCC 29212; test: Minimum inhibitory concentration (MIC); assay type: cell-based; details: ATCC29212
[21] = tested on: Ent. faecalis D 21777; test: Minimum inhibitory concentration (MIC); assay type: cell-based; details: Enterococcus faecalis, D21777
[22] = tested on: Ent. faecalis D 23241; test: Minimum inhibitory concentration (MIC); assay type: cell-based; details: Enterococcus faecalis, D23241
[23] = tested on: Ent. faecalis D 756; test: Minimum inhibitory concentration (MIC); assay type: cell-based; details: Enterococcus faecalis, D756
[24] = tested on: Ent. faecalis D 26777; test: Minimum inhibitory concentration (MIC); assay type: cell-based; details: Enterococcus faecalis, D26777
[25] = tested on: Ent. faecalis D 7F; test: Minimum inhibitory concentration (MIC); assay type: cell-based; details: Enterococcus faecalis, D7F
[26] = tested on: Ent. faecium D-65; test: Minimum inhibitory concentration (MIC); assay type: cell-based; details: Enterococcus faecium, D65
[27] = tested on: Ent. faecium 5601 (H); test: Minimum inhibitory concentration (MIC); assay type: cell-based; details: Enterococcus faecium
[28] = tested on: Ent. faecium P-1; test: Minimum inhibitory concentration (MIC); assay type: cell-based; details: Enterococcus faecium, P1
[29] = tested on: Ent. faecium P-2; test: Minimum inhibitory concentration (MIC); assay type: cell-based; details: Enterococcus faecium, P2
[30] = tested on: Ent. faecium VR-1; test: Minimum inhibitory concentration (MIC); assay type: cell-based; details: Enterococcus faecium, VR1; Ent. faecium VR-1 (resistant to vancomycin)
[31] = tested on: Ent. hirae 55; test: Minimum inhibitory concentration (MIC); assay type: cell-based; details: Enterococcus hirae
[32] = tested on: Ent. durans 4939H; test: Minimum inhibitory concentration (MIC); assay type: cell-based; details: Enterococcus durans
[33] = tested on: Escherichia coli 9632; test: Minimum inhibitory concentration (MIC); assay type: cell-based
[34] = tested on: E. coli super sen. 2231; test: Minimum inhibitory concentration (MIC); assay type: cell-based; details: Escherichia coli
[35] = tested on: Pseudomonas aeruginosa M35; test: Minimum inhibitory concentration (MIC); assay type: cell-based
[36] = Solubility (physico-chemical properties); assay type: physicochemical; details: solvents in which soluble
[37] = tested on: vancomycin- and teicoplanin-resistant strains; test: Antibiotic activity against resistant strains; assay type: cell-based

**Q.** For `C/C(=C\CC(O)CC(O)CCC(C)C(O)C(C)C(O)CCCC(O)C(C)C(O)/C(C)=C/C(C)C(=O)/C(C)=C/C(O)C(O)CC(O)CC(OC1OC(C)C(O)C(N)C1O)C(C)CCC(O)CC(O)CCC(C)C(O)C(C)C(O)C(C)C)C(=O)C1=C(O)/C(=C/C(C)C)N(C)C1=O` (stereo not shown) [Vancoresmycin], which MIC [1] is on record?
**A.** 0.05 µg/mL (≈ 0.0372 µM)

**Q.** What about the MIC [2] of the same compound?
**A.** 0.05 µg/mL (≈ 0.0372 µM)

**Q.** What about the MIC [3] of the same compound?
**A.** 0.1 µg/mL (≈ 0.0744 µM)

**Q.** And the MIC [4]?
**A.** 0.05 µg/mL (≈ 0.0372 µM)

**Q.** What about the MIC [5] of the same compound?
**A.** 0.1 µg/mL (≈ 0.0744 µM)

**Q.** And the MIC [6]?
**A.** 0.1 µg/mL (≈ 0.0744 µM)

**Q.** What about the MIC [7] of the same compound?
**A.** 0.1 µg/mL (≈ 0.0744 µM)

**Q.** And the MIC [8]?
**A.** 0.1 µg/mL (≈ 0.0744 µM)

**Q.** And the MIC [9]?
**A.** 0.05 µg/mL (≈ 0.0372 µM)

**Q.** What about the MIC [10] of the same compound?
**A.** 0.05 µg/mL (≈ 0.0372 µM)

**Q.** And the MIC [11]?
**A.** 0.05 µg/mL (≈ 0.0372 µM)

**Q.** What about the MIC [12] of the same compound?
**A.** 0.025 µg/mL (≈ 0.0186 µM)

**Q.** What about the MIC [13] of the same compound?
**A.** 0.05 µg/mL (≈ 0.0372 µM)

**Q.** What about the MIC [14] of the same compound?
**A.** 0.39 µg/mL (≈ 0.29 µM)

**Q.** What about the MIC [15] of the same compound?
**A.** 0.05 µg/mL (≈ 0.0372 µM)

**Q.** And the MIC [16]?
**A.** 0.1 µg/mL (≈ 0.0744 µM)

**Q.** What about the MIC [17] of the same compound?
**A.** 0.2 µg/mL (≈ 0.149 µM)

**Q.** And the MIC [18]?
**A.** 0.1 µg/mL (≈ 0.0744 µM)

**Q.** What about the MIC [19] of the same compound?
**A.** 0.1 µg/mL (≈ 0.0744 µM)

**Q.** And the MIC [20]?
**A.** 0.39 µg/mL (≈ 0.29 µM)

**Q.** And the MIC [21]?
**A.** 0.39 µg/mL (≈ 0.29 µM)

**Q.** What about the MIC [22] of the same compound?
**A.** 0.39 µg/mL (≈ 0.29 µM)

**Q.** What about the MIC [23] of the same compound?
**A.** 0.39 µg/mL (≈ 0.29 µM)

**Q.** And the MIC [24]?
**A.** 0.39 µg/mL (≈ 0.29 µM)

**Q.** What about the MIC [25] of the same compound?
**A.** 0.39 µg/mL (≈ 0.29 µM)

**Q.** What about the MIC [26] of the same compound?
**A.** 0.39 µg/mL (≈ 0.29 µM)

**Q.** And the MIC [27]?
**A.** 0.39 µg/mL (≈ 0.29 µM)

**Q.** What about the MIC [28] of the same compound?
**A.** 0.39 µg/mL (≈ 0.29 µM)

**Q.** What about the MIC [29] of the same compound?
**A.** 0.39 µg/mL (≈ 0.29 µM)

**Q.** And the MIC [30]?
**A.** 0.39 µg/mL (≈ 0.29 µM)

**Q.** And the MIC [31]?
**A.** 0.39 µg/mL (≈ 0.29 µM)

**Q.** What about the MIC [32] of the same compound?
**A.** 0.39 µg/mL (≈ 0.29 µM)

**Q.** And the MIC [33]?
**A.** > 100 µg/mL

**Q.** What about the MIC [34] of the same compound?
**A.** > 100 µg/mL

**Q.** And the MIC [35]?
**A.** > 100 µg/mL

**Q.** And the Solubility [36]?
**A.** Methanol, DMSO

**Q.** What about the antibiotic activity [37] of the same compound?
**A.** active

Reference: patent US6387943B1, “Vancoresmycin, a process for its production and its use as a pharmaceutical” (Aventis Pharma Deutschland GmbH, priority 1998, dated 2002)
